IC50 data for 56 compounds are collected here from patent publication US20230077723A1, “N-SUBSTITUTED-3,4-(FUSED 5-RING)-5-PHENYL-PYRROLIDINE-2-ONE COMPOUNDS AS INHIBITORS OF ISOQC AND/OR QC ENZYME” (Scenic Immunology B.V., priority 2019, published 2023).

For one experiment, the system named is pyroglutamylated CD47 (pE-CD47) in KBM7 cells. The experiment in a line: Assay 6 - cell-based potency assay (pE-CD47 CC2C6 staining vs total CD47). Also on record: species or system human. The following applies: 72 hours, CC2C6 signal, read-out: Cell Pot. Assay No. 6. As for the experimental part: Cells were spun for 4 minutes at 1500 rpm and washed once with PBS/0.5% BSA. Cells were spun down again and the supernatant was removed and incubated in 100 uL antibody staining solution (PBS/0.5% BSA/0.1 μg/mL DAPI (4′,6-diamidino-2-phenylindole, ThermoFisher Scientific) and a mixture of 1:500 FITC-conjugated anti-human CD47 clone 2D3, which recognizes total CD47 irrespective of its pyroglutamylation state, and 1:500 Alexa647-conjugated anti-human CD47 clone CC2C6, which specifically detects pyroglutamylated CD47) for 2 hours at 4° C. Next, the cells were spun down and washed twice with 2×150 μL PBS/0.5% BSA to remove unbound antibody. Cells were again spun down and taken up in 300 μL FACS buffer before analysis on a Celesta FACS machine (BD Biosciences).
KBM7 cells (Kotecki et al., 1999) were infected with lentivirus produced by transfecting pSCNC-LentiCRISPR-QPCTL or pSCNC-LentiCRISPR-CD47 into HEK-293T cells according to standard protocols. After 24 hours incubation, cells were selected with puromycin (Invivogen, 1 μg/mL) for 48 hours. Cells were stained for total CD47 and pE-CD47 and QPCTL k.o. cells were sorted out as negative for pE-CD47, and CD47 k.o. cells as negative for total CD47, using a FACSAria III and FACS Diva software (BD Biosciences).
In order to test compounds for their effect on pyroglutamylation in live cells, 25000 KBM7 cells per well were seeded in a 96-well U-bottom plate in 150 μl IMDM/10% FCS/1% Pen/Strep medium and a 10-point 2-fold dilution range of test compounds. After 72 hours incubation at 37° C., 5% CO2, cells were stained for total CD47 and pE-CD47 and analyzed on a BD Celesta using FACS Diva software (BD Biosciences). Cells gated for DAPI negativity were recorded and the median fluorescence intensity (MFI) of each sample was transformed to linearly scale between the MFI's of wildtype and CD47 knockout cells (in case of the 2D3 antibody) and the wildtype and QPCTL knockout cells (in case of the CC2C6 antibody). IC50's were calculated by 3 parameter logistic regression of the CC2C6 signal vs. compound concentration, where the top of the sigmoidal curve was fixed at 1, using R and the drc package (http://www.r-project.org, https://cran.r-project.org/web/packages/drc/index.html).
Turning to `Cc1[nH]nc2c1C(c1ccc(N3CCC(F)(F)C3)cc1F)N(c1ccc3[nH]cnc3c1)C2=O` (centres unmarked) [FRPPO-126C], the IC50 is below 1 µM.
Regarding `Cc1c2c(nn1C)C(=O)N(c1ccc3[nH]cnc3c1)C2c1ccc(N2CCC(F)(F)C2)c(F)c1F` (centres unmarked) [FRPPO-066], the IC50 lay within 1 to 5 µM.

The same experiment, now with this note: Homo sapiens, KBM-7, 72 h, CC2C6 signal, Table 2, read-out: Cell Potency Assay 6 (Comparison Data).
Consider `CCCOc1ccc(C2c3c(nn(C)c3C)C(=O)N2c2ccc3nncn3n2)cc1` (racemic) [REF-005, reference compound], for which the IC50 is at least 50 µM.
The same measure, in the same setting: the figure for `CCCOc1ccc(C2c3c(nn(C)c3C)C(=O)N2c2ccc3nnc(C)n3c2)cc1` (racemic) [REF-003, reference compound] is at least 50 µM; for `CCCOc1ccc(C2c3c(nn(C)c3C)C(=O)N2c2ccc3nnn(C)c3n2)cc1` (racemic) [REF-007, reference compound] it is above 6.25 µM; for `CCCOc1ccc(C2c3c(nn(C)c3C)C(=O)N2c2cc(NC)c3nnc(C)n3n2)cc1` (racemic) [REF-008, reference compound] it is at least 50 µM.
For the compound `CCCOc1ccc(C2c3c(nn(C)c3C)C(=O)N2c2cc(C)c3nnc(C)n3n2)cc1` (racemic) [REF-006, reference compound], the IC50 was above 6.25 µM.

Staying with this experiment, now noted: Homo sapiens, KBM-7, 72 h, CC2C6 signal, read-out: Cell Pot. Assay No. 6.
As to `Cc1c2c(nn1C)C(=O)N(c1ccc3[nH]cnc3c1)C2c1ccc(NCCC(F)(F)F)cc1F` (centres unmarked) [FRPPO-092], the IC50 is below 1 µM.
Still for that read-out and setting: the same measure for `Cc1c2c(nn1C)C(=O)N(c1ccc3[nH]cnc3c1)C2c1ccc(N2CC(O)C(F)C2)cc1F` (centres unmarked) [FRPPO-089]: 1 to 5 µM.
As for `Cc1nn(C)c2c1C(c1ccc(N3CCC(F)(F)C3)c(F)c1F)N(c1ccc3[nH]cnc3c1)C2=O` (centres unmarked) [FRPPO-169], the IC50 lay within 1 to 5 µM.
Still for that read-out and setting: the same measure for `Cc1nc2c(s1)C(c1ccc(Cl)cc1F)N(c1ccc3[nH]cnc3c1)C2=O` (centres unmarked) [FRPPO-064]: 5 to 50 µM.
Same read-out and setting: the same measure for `Cc1c2c(nn1C)C(=O)N(c1ccc3[nH]cnc3c1)C2c1ccc(N2CCC2)cc1F` (centres unmarked) [FRPPO-070]: 1 to 5 µM; for `CC(O)c1c2c(nn1C)C(=O)N(c1ccc3[nH]cnc3c1)C2c1ccc(N2CCC(F)(F)C2)cc1F` (centres unmarked) [FRPPO-156]: below 1 µM.
Same read-out and setting: the figure for `Cc1c2c(nn1C)C(=O)N(c1ccc3[nH]cnc3c1)C2c1ccc(N2CCN(S(C)(=O)=O)CC2)cc1F` (centres unmarked) [FRPPO-111] is 1 to 5 µM; for `Cc1c2c(nn1C)C(=O)N(c1ccc3[nH]cnc3c1)C2c1cccc(C2CCN(C)CC2)c1F` (centres unmarked) [FRPPO-155] it is 5 to 50 µM; for `Cc1c2c(nn1C)C(=O)N(c1ccc3[nH]cnc3c1)C2c1ccc(N2CCC[C@H]2C)cc1F` (some centres unmarked) [FRPPO-115A] it is below 1 µM.
Take `Cc1nc2c(s1)C(c1ccc(N3CCC(F)(F)C3)cc1F)N(c1ccc3[nH]cnc3c1)C2=O` (centres unmarked) [FRPPO-061]: the IC50 is 1 to 5 µM.
On the same count and under the same terms, the same measure for `Cc1c2c(nn1C)C(=O)N(c1ccc3[nH]cnc3c1)C2c1ccc(N2CCC23COC3)cc1F` (centres unmarked) [FRPPO-079]: 1 to 5 µM; for `COC(=O)N1CCN(c2ccc(C3c4c(nn(C)c4C)C(=O)N3c3ccc4[nH]cnc4c3)c(F)c2)CC1` (centres unmarked) [FRPPO-107]: 1 to 5 µM.
Still for that read-out and setting: the same measure for `Cc1c2c(nn1C)C(=O)N(c1ccc3[nH]cnc3c1)C2c1ccc(N2CCO[C@@H](C)C2)cc1F` (some centres unmarked) [FRPPO-114A]: below 1 µM; for `Cc1nn(C)c2c1C(c1ccc(-n3cc(C(F)(F)F)cn3)cc1)N(c1ccc3[nH]cnc3c1)C2=O` (centres unmarked) [FRPPO-174]: 1 to 5 µM.
Still for that read-out and setting: the figure for `Cc1c2c(nn1C)C(=O)N(c1ccc3[nH]cnc3c1)C2c1ccc(N2CC(C)NC(C)C2)cc1F` (centres unmarked) [FRPPO-100] is 5 to 50 µM; for `Cc1c2c(nn1C)C(=O)N(c1ccc3[nH]cnc3c1)C2c1ccc(N2CCC(O)CC2)cc1F` (centres unmarked) [FRPPO-085] it is 5 to 50 µM.
As for `O=C1c2ncsc2C(c2ccc(Cl)cc2F)N1c1ccc2[nH]cnc2c1` (centres unmarked) [FRPPO-063], the IC50 was in the range of 1 to 5 µM.
For `Cc1c2c(nn1C)C(c1ccc(N3CCC(F)(F)C3)cc1F)N(c1ccc3[nH]cnc3c1)C2=O` (centres unmarked) [FRPPO-046], the IC50 was in the range of 5 to 50 µM.
Same read-out and setting: the same measure for `Cc1c2c(nn1C)C(=O)N(c1ccc3[nH]cnc3c1)C2c1ccc(N2CCN(C)CC2)cc1F` (centres unmarked) [FRPPO-083]: 1 to 5 µM; for `Cc1[nH]nc2c1C(c1ccc(-n3cc(C(F)(F)F)cn3)cc1F)N(c1ccn3ccnc3c1)C2=O` (centres unmarked) [FRPPO-198]: below 1 µM; for `Cc1c2c(nn1C)C(=O)N(c1ccc3[nH]cnc3c1)C2c1ccc(N2CCOCC2)cc1F` (centres unmarked) [FRPPO-078]: below 1 µM.
Still for that read-out and setting: the figure for `Cc1c2c(nn1C)C(=O)N(c1ccc3[nH]cnc3c1)C2c1ccc(C#N)cc1F` (centres unmarked) [FRPPO-069] is 1 to 5 µM; for `Cc1c2c(nn1C)C(=O)N(c1ccc3[nH]cnc3c1)C2c1ccc(N2CC3CC(C2)O3)cc1F` (centres unmarked) [FRPPO-077] it is 1 to 5 µM.
Still for that read-out and setting: the same measure for `Cc1nn(C)c2c1C(=O)N(c1ccc3[nH]cnc3c1)C2c1ccc(N2CCC(F)(F)C2)cc1F` (centres unmarked) [FRPPO-049]: below 1 µM.
As for `Cc1c2c(nn1C1CC1)C(=O)N(c1ccc3[nH]cnc3c1)C2c1ccc(N2CCC(F)(F)C2)cc1F` (centres unmarked) [FRPPO-127B], the IC50 is below 1 µM.
Still for that read-out and setting: the figure for `Cc1nn(C)c2c1C(c1ccc(OCCC(F)F)c(F)c1F)N(c1ccc3[nH]cnc3c1)C2=O` (centres unmarked) [FRPPO-167] is 1 to 5 µM.
Still for that read-out and setting: the figure for `Cc1c2c(nn1C)C(=O)N(c1ccc3[nH]cnc3c1)C2c1ccc(N2C3CCC2COC3)cc1F` (centres unmarked) [FRPPO-093] is 1 to 5 µM.
Same read-out and setting: the same measure for `Cn1nc2c(c1CO)C(c1ccc(N3CCC(F)(F)C3)cc1F)N(c1ccc3[nH]cnc3c1)C2=O` (centres unmarked) [FRPPO-157]: below 1 µM.
With `Cc1c2c(nn1C)C(=O)N(c1ccc3[nH]cnc3c1)C2c1ccc(N2CCCC(O)C2)cc1F` (centres unmarked) [FRPPO-086], the IC50 lay in the range of 1 to 5 µM.
Same read-out and setting: the figure for `Cc1nn(C)c2c1C(=O)N(c1ccc3[nH]cnc3c1)C2c1ccc(Cl)cc1F` (centres unmarked) [FRPPO-052] is 5 to 50 µM; for `Cc1c2c(nn1C)C(=O)N(c1ccc3[nH]cnc3c1)C2c1ccc(-c2cnc(C(F)(F)F)s2)cc1F` (centres unmarked) [FRPPO-144] it is below 1 µM; for `Cc1c2c(nn1C)C(=O)N(c1ccc3[nH]cnc3c1)C2c1ccc(-c2ccc(OC(F)(F)F)nc2)cc1F` (centres unmarked) [FRPPO-142A] it is below 1 µM.
The same measure, in the same setting: the figure for `Cc1[nH]nc2c1C(c1ccc(N3CCC(F)(F)C3)cc1F)N(c1ccc3[nH]cnc3c1)C2=O` (centres unmarked) [FRPPO-126B] is 1 to 5 µM; for `Cc1nn(C)c2c1C(c1ccc(-c3cnn(C(F)(F)F)c3)cc1)N(c1ccc3[nH]cnc3c1)C2=O` (centres unmarked) [FRPPO-175] it is below 1 µM; for `CCCOc1ccc(C2c3c(C)nn(C)c3C(=O)N2c2ccc3[nH]cnc3c2)cc1` (centres unmarked) [FRPPO-002] it is 1 to 5 µM.
On the same count and under the same terms, the figure for `Cc1nc2c(s1)C(=O)N(c1ccc3[nH]cnc3c1)C2c1ccc(Cl)cc1F` (centres unmarked) [FRPPO-058] is 5 to 50 µM; for `Cc1c2c(nn1C)C(=O)N(c1ccc3[nH]cnc3c1)C2c1ccc(-c2csc(C(F)(F)F)n2)cc1F` (centres unmarked) [FRPPO-146] it is below 1 µM; for `Cc1c2c(nn1C)C(=O)N(c1ccc3[nH]cnc3c1)C2c1ccc(N2CC3(CCOC3)C2)cc1F` (centres unmarked) [FRPPO-095] it is 1 to 5 µM.
Regarding `Cc1c2c(nn1C1CC1)C(=O)N(c1ccc3[nH]cnc3c1)C2c1ccc(N2CCC(C(F)(F)F)CC2)cc1F` (centres unmarked) [FRPPO-136], the IC50 is below 1 µM.
The same measure, in the same setting: the figure for `Cc1c2c(nn1C1CC1)C(=O)N(c1ccc3[nH]cnc3c1)C2c1ccc(N2CCC(F)(F)CC2)cc1F` (centres unmarked) [FRPPO-137] is below 1 µM; for `Cc1c2c(nn1C)C(=O)N(c1ccc3[nH]cnc3c1)C2c1ccc(N2CCC3(COC3)C2)cc1F` (centres unmarked) [FRPPO-097] it is below 1 µM; for `CC(C)c1[nH]nc2c1C(c1ccc(N3CCC(F)(F)C3)cc1F)N(c1ccc3[nH]cnc3c1)C2=O` (centres unmarked) [FRPPO-153] it is below 1 µM.
Same read-out and setting: the same measure for `Cn1ncc2c1C(c1ccc(Cl)cc1F)N(c1ccc3[nH]cnc3c1)C2=O` (centres unmarked) [FRPPO-051]: 1 to 5 µM; for `Cc1c2c(nn1C)C(=O)N(c1ccc3[nH]cnc3c1)C2c1ccc(N2CCS(=O)(=O)CC2)cc1F` (centres unmarked) [FRPPO-105]: 5 to 50 µM.
Same read-out and setting: the same measure for `Cn1nc(C(F)(F)F)c2c1C(c1ccc(Cl)cc1F)N(c1ccc3[nH]cnc3c1)C2=O` (centres unmarked) [FRPPO-053]: 5 to 50 µM; for `Cc1c2c(nn1C)C(=O)N(c1ccc3[nH]cnc3c1)C2c1ccc(N2CCOC(C(F)(F)F)C2)cc1F` (centres unmarked) [FRPPO-109]: below 1 µM; for `Cc1[nH]nc2c1C(c1ccc(-c3cnc(C(F)(F)F)s3)cc1F)N(c1ccc3[nH]cnc3c1)C2=O` (centres unmarked) [FRPPO-145]: below 1 µM.
As for `Cc1nn(C)c2c1C(c1ccc(N3CCC(F)(F)C3)cc1F)N(c1ccc3[nH]cnc3c1)C2=O` (centres unmarked) [FRPPO-170], the IC50 was 1 to 5 µM.
Same read-out and setting: the same measure for `Cc1c2c(nn1C)C(=O)N(c1ccc3[nH]cnc3c1)C2c1ccc(N2CCC3(CCOC3)C2)cc1F` (centres unmarked) [FRPPO-104]: below 1 µM.
